Assay results published in patent US11091423B2, “Reagents and methods for esterification” (Wisconsin Alumni Research Foundation, priority 2013, dated 2021).

Molecular target: T1, ribonuclease A (RNase A) (Bos taurus, UniProt P61823)
T1 sequence (P61823 27-150): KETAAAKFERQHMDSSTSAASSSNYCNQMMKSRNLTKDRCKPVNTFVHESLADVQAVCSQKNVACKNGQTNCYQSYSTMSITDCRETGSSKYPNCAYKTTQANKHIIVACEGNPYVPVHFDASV
Assay: RNase A labeling (esterification of carboxyl groups), extent by MALDI, labelled residues by trypsin digestion and mass spectrometry
Format: biochemical
Details: for extent of labeling of RNase A (average number of the eleven carboxylates esterified): 10 equivalents of diazo compound; for RNase A residues labelled (chemoselectivity): trypsin digestion coupled with mass spectrometry
Description: To address biocompatibility of diazo-compounds for esterification more directly, the relative esterification efficiency of these diazo compounds was compared with the eleven carboxyl groups present in ribonuclease A (RNase A).[24]
Only after the addition of 200 equivalents was any esterification with diazo-acetamide 1 observed which correlates with its lack of selectivity under aqueous conditions (Scheme 2).
Using trypsin digestion coupled with mass spectrometry, it was determined which residues were labelled and the results fit well with the observed chemoselectivity of each diazo compound. […] This provides further evidence that properly tuned diazo compounds can not only attain high levels of labelling, but can also selectively label specific residues.
Ribonuclease A (0.001 g, 0.073 μmol) was dissolved in MES buffer (10 mM, pH=5.5, 0.1 mL) and diazobenzylacetamide (0.0026 g, 14.6 μmol) was dissolved in acetonitrile (0.1 mL). The two solutions were combined and the reaction was allowed to stir 4 hours at 37° C.
Ribonuclease A (0.001 g, 0.073 μmol) was dissolved in MES buffer (10 mM, pH=5.5, 0.1 mL) and a stock solution of diazofluorene in acetonitrile was made (Stock solution: 0.001 g, 7.30 μmol, 1 mL CH3CN). The stock solution of diazo compound (0.1 mL, 0.730 μmol) was added to the ribonuclease solution and the reaction was allowed to stir 4 hours at 37° C. Any remaining diazo compound was then quenched by adding 0.1 M acetic acid (0.1 mL) and the reaction was concentrated and the extent of labeling was determined by MALDI spectroscopy to be ˜3 labels per RNase A.

[1] = 4 hours at 37° C., MES buffer pH 5.5/acetonitrile

[N-]=[N+]=C(Cc1ccccc1)C(N)=O [compound 1, Diazobenzylacetamide]
extent of labeling of RNase A (average number of the eleven carboxylates esterified) [1]: incapable of labelling | extent of labeling of RNase A (average number of the eleven carboxylates esterified) (4 hours at 37° C., MES buffer pH 5.5/acetonitrile, listed as diazobenzylacetamide): no labeling was observed | RNase A residues labelled (chemoselectivity) (200 equiv.): comparably labelling residues Glu9, Asp14, Glu49, Glu111, and the C-terminal Val124 | extent of labeling of RNase A (200 equivalents of diazo compound, 4 hours at 37° C., MES buffer pH 5.5/acetonitrile): < 1 label per RNase A

[N-]=[N+]=C1c2ccccc2-c2ccccc21 [compound 2, Diazofluorene]
RNase A residues labelled (chemoselectivity) (10 equiv.): almost exclusively labelling Asp14, Glu49, Glu111, and Asp121 | extent of labeling of RNase A (average number of the eleven carboxylates esterified) [1]: ~3 labels per RNase A
